Experimental findings from publication PMC9315260, “Diarylamine-Guided Carboxamide Derivatives: Synthesis, Biological Evaluation, and Potential Mechanism of Action” (Frontiers in Chemistry, 2022) are described below.

Entries after “also recorded” stand apart in the source; their conditions may differ. Where only a bound is given, the exact number is not on record here.

In data set [1] the test system is SGC-7901 (human gastric cancer cell line). In words: MTT in vitro cytotoxicity assay, SGC-7901. Particulars: for IC50: SGC-7901, Table 3, MTT, mean ± S.D.; for inhibition at 100 µM: SGC-7901, at 100 µM, read-out: Cell growth inhibition (%) SGC-7901. Type of data set: cell-based. The procedure: (§1) The lead molecules A2 and all newly prepared diarylamine derivatives B1-13 and C1-11 were evaluated for their in vitro cytotoxic effects against SGC-7901, A875, HepG2 and MARC145 cell lines by the classical MTT [3-(4,5-dimethylthiazol-2-yl)-2,5-diphenyl tetrazolium bromide] assay ([Alley et al., 1988]; [Ke et al., 2012]; [Shi et al., 2012]; [Yu et al., 2015]; [Ke et al., 2019]; [Xu et al., 2019]; [Huang et al., 2021]) using 5-FU (5-Fluorouracil) as a control.
(§2) The cytotoxicity of target compounds was determined with MTT assay ([Alley et al., 1988]; [Ke et al., 2012]; [Shi et al., 2012]; [Yu et al., 2015]; [Ke et al., 2019]; [Xu et al., 2019]; [Huang et al., 2021]). SGC-7901, A875, HepG2 and MARC145 cell lines were obtained from Hubei Biopesticide Engineering Research Centre. All data of the experiment were analyzed with SPSS software, and all assay were performed in triplicate on three independent experiments, and measurement data were expressed as the mean ± S.D.
(§3) The in vitro cytotoxicity of the synthesized compounds against different cell lines (SGC-7901, A875, HepG2 and MARC145) was measured with MTT assay. All the data of the experiment were analyzed with SPSS software, and the 50% inhibitory concentrations (IC50) of each compound for the different cell lines were determined. A control was run for each test, and all assays were performed in triplicate on three independent experiments, and measurement data were expressed as the mean ± S.D.

The test system of data set [2] is A875 (human melanoma cell line). Briefly: MTT in vitro cytotoxicity assay, A875. Particulars: for IC50: A875, Table 3, MTT, mean ± S.D.; for inhibition at 100 µM: A875, at 100 µM, read-out: Cell growth inhibition (%) A875. The class given is cell-based. The procedure: as §1, §2, §3
The subject of data set [3] is HepG2 (human hepatocellular liver carcinoma cell line). Briefly: MTT in vitro cytotoxicity assay, HepG2. Type of data set: cell-based. To be noted: for IC50: HepG2, Table 3, MTT, mean ± S.D.; for inhibition at 100 µM: HepG2, at 100 µM, read-out: Cell growth inhibition (%) HepG2. How it is done:
as §1, §2, §3

Data set [4] in a line: MTT in vitro cytotoxicity assay, MARC145. Particulars: African green monkey, MARC145 cells (kidney cell line, subclone of MA-104), Table 3; MTT; mean ± S.D. Type of data set: cell-based, African green monkey. How it is done: as §1, §2, §3
For data set [5], the system named is MARC145 (subclone of African green monkey kidney cell line MA-104). In words: MTT in vitro cytotoxicity assay, MARC145. Type of data set: cell-based. Particulars: Chlorocebus sabaeus, MARC145; at 100 µM; read-out: Cell growth inhibition (%) MARC145. How it is done:
as §1, §2, §3

The subject of data set [6] is SGC-7901, A875, HepG2 and MARC145 cell lines. In words: MTT in vitro cytotoxicity assay, statements over the whole cell panel. The class given is cell-based. To be noted: for cytotoxic effect / inhibition activity in words: IC50-based judgement, compared with 5-FU; for dose-response analysis of cell growth inhibition, in words: SGC-7901, A875, HepG2, MARC145; for inhibition activity in preliminary screening, in words: at 100 µM, inhibition rate higher than control 5-FU. The procedure: as §1, §2, §3

Usually IC50 stands for the concentration that inhibits the measured activity by half. In general, inhibition refers to the change of the read-out against control, counted positive when it falls. For orientation: melting point means the temperature of the solid-liquid transition. `O=C(Nc1ccccc1C(F)(F)F)c1cccnc1Nc1cccc(C(F)(F)F)c1` [C4, N-(2-(Trifluoromethyl)phenyl)-2-((3-(trifluoromethyl)phenyl)amino)nicotinamide] yielded a melting point of 139 to 140 °C. Also, in data set [1], the IC50 was above 94 µM and the inhibition at 100 µM was determined as 4.5 ± 0.4%. Moreover, in data set [2], the IC50 is above 94 µM and the inhibition at 100 µM is 5.2 ± 1.5%. In data set [3], the IC50 was above 94 µM and the inhibition at 100 µM amounted to 3.1 ± 1.2%. Moreover, the IC50 in data set [4] is above 94 µM. Besides, the inhibition at 100 µM in data set [5] came to 0%.
`O=C(Nc1cccc(C(F)(F)F)c1)c1ccccc1Nc1cccc(C(F)(F)F)c1` [C5, N-(3-(Trifluoromethyl)phenyl)-2-((3-(trifluoromethyl)phenyl)amino)benzamide] yielded a melting point of 75 to 76 °C. In data set [1], it took 6.39 ± 1.53 µM to reach half-maximal inhibition (IC50) and the inhibition at 100 µM was determined as 89.6 ± 5.4%. For the same compound, in data set [2], the IC50 is 8.54 ± 2.17 µM and the inhibition at 100 µM stood at 93.7 ± 3.2%. Further, in data set [3], inhibition was half-maximal at 10.1 ± 0.8 µM (IC50) and the inhibition at 100 µM was determined as 88.9 ± 1.9%. For the same compound, the IC50 in data set [4] turned out to be 9.57 ± 2.15 µM. Besides, the inhibition at 100 µM in data set [5] stood at 92.3 ± 4.1%. Besides, in data set [6], the “cytotoxic effect / inhibition activity in words” value was “good cytotoxic effect; also recorded: higher inhibition activities compared to the control 5-FU”; the “dose-response analysis of cell growth inhibition, in words” value was “significant concentration dependence”; the “inhibition activity in preliminary screening, in words” value is listed as “good inhibition activity”.
In turn, `O=C(Nc1ccc(C(F)(F)F)cc1)c1ccccc1Nc1cccc(C(F)(F)F)c1` [C7, N-(4-(Trifluoromethyl)phenyl)-2-((3-(trifluoromethyl)phenyl)amino)benzamide] had a melting point of 102 to 103 °C. Further, in data set [1], inhibition was half-maximal at 8.91 ± 2.15 µM (IC50) and the inhibition at 100 µM turned out to be 87 ± 2.4%. In data set [2], the IC50 came to 13 ± 3.39 µM and the inhibition at 100 µM was found to be 92.6 ± 4.9%. Moreover, in data set [3], the midpoint of inhibition, the IC50, lay at 10.4 ± 2.17 µM and the inhibition at 100 µM amounted to 88.5 ± 3.3%. Moreover, the IC50 in data set [4] was 11.9 ± 1.37 µM. For the same compound, the inhibition at 100 µM in data set [5] was 76.1 ± 3.5%. For the same compound, in data set [6], the “cytotoxic effect / inhibition activity in words” value was “good cytotoxic effect; also recorded: higher inhibition activities compared to the control 5-FU”; the “dose-response analysis of cell growth inhibition, in words” value is “significant concentration dependence”; the “inhibition activity in preliminary screening, in words” value was “good inhibition activity”.
`O=C(Nc1ccccn1)c1ccccc1Nc1cccc(C(F)(F)F)c1` [C9, N-(Pyridin-2-yl)-2-((3-(trifluoromethyl)phenyl)amino)benzamide] returned a melting point of 65 to 66 °C. In data set [1], the midpoint of inhibition, the IC50, lay at 42 ± 7.95 µM and the inhibition at 100 µM was 80.5 ± 2.5%. In data set [2], the IC50 was above 112 µM and the inhibition at 100 µM was determined as 30.3 ± 4.1%. Further, in data set [3], the IC50 worked out at 64.2 ± 3.89 µM and the inhibition at 100 µM stood at 75 ± 2.7%. In addition, the IC50 in data set [4] amounted to 64.7 ± 3.02 µM. Besides, in data set [5], the inhibition at 100 µM is 56.5 ± 3.3%.
For the compound `O=C(Nc1ccnc(Cl)c1)c1ccccc1Nc1cccc(C(F)(F)F)c1` [C10, N-(2-Chloropyridin-4-yl)-2-((3-(trifluoromethyl)phenyl)amino)benzamide], the melting point fell in the range of 97 to 98 °C. In data set [1], the IC50 was 8.31 ± 2.94 µM and the inhibition at 100 µM came out at 86.8 ± 3.2%. In data set [2], the IC50 worked out at 26.3 ± 7.39 µM and the inhibition at 100 µM was 90.1 ± 5.4%. Moreover, in data set [3], the IC50 stood at 21.9 ± 1.64 µM and the inhibition at 100 µM stood at 87.2 ± 4.1%. The compound further yielded an IC50 in data set [4] of 22.7 ± 5.93 µM. The inhibition at 100 µM in data set [5] is 80.3 ± 4.6%. In data set [6], the “cytotoxic effect / inhibition activity in words” value is recorded as “higher inhibition activities compared to the control 5-FU” and the “inhibition activity in preliminary screening, in words” value is “good inhibition activity”.
